Reference: patent US20170029866A1 (Ameritox, Ltd, priority 2015, published 2017)

Columns and labels:
[1] = Haldol in urine samples before hydrolysis; assay type: in vivo, human; conditions: Without Hydrolysis; summary of Table 1, N 151
[2] = Haldol in urine samples after hydrolysis with a betaglucuronidase enzyme; assay type: in vivo, human
[3] = With hydrolysis, summary of Table 1, N 151

O=C(CCCN1CCC(O)(c2ccc(Cl)cc2)CC1)c1ccc(F)cc1 [Haldol, Haloperidol]
Avg [1]: 30.7
Max [1]: 414.0
Min [1]: 0.0
Avg [2, 3]: 982.5
Max [2, 3]: 16805.6
Min [2, 3]: 0.0
amount of Haldol determined in urine samples post hydrolysis versus before ([2]; human urine, betaglucuronidase hydrolysis): increased post hydrolysis
